Consider 33 compounds from patent publication US20060074243A1, “Hydroxamic acid and amide compounds and their use as protease inhibitors” (Pharmacia Corporation, priority 2002, published 2006).

For one test, the target named is T1, Human recombinant MMP-13 (Homo sapiens, UniProt P45452).
T1 construct: made in house; host or cells: baculovirus / insect cells
Briefly: In vitro MMP inhibition analysis (fluorogenic peptide substrate cleavage), Ki. It is filed as biochemical. As to conditions: Table 1. The procedure: (§1) Several compounds and salts were analyzed in an in vitro assay to determine their ability to inhibit the MMP cleavage of peptide substrates. Inhibition constant (Ki) were calculated from the assayed compound-MMP interactions.
(§2) Human recombinant MMP-1, MMP-2, MMP-9, MMP-13, and MMP-14 were used in this assay. All enzymes were prepared in Assignee's laboratories following usual laboratory procedures. Protocols for the preparation and use of these enzymes are available in the scientific literature. See, e.g., Enzyme Nomenclature (Academic Press, San Diego, Calif., 1992) (and the citations therein). See also, Frije et al., J. Biol. Chem., 26(24), 16766-73 (1994).
The MMP-13 was obtained as a proenzyme from a full-length cDNA clone using baculovirus, as described by V. A. Luckow, “Insect Cell Expression Technology,” Protein Engineering: Principles and Practice, pp. 183-218 (edited by J. L. Cleland et al., Wiley-Liss, Inc., 1996). The expressed proenzyme was first purified over a heparin agarose column, and then over a chelating zinc chloride column. The proenzyme was then activated by APMA for use in the assay. Further details on baculovirus expression systems may be found in, for example, Luckow et al., J. Virol., 67, 4566-79 (1993). See also, O'Reilly et al, Baculovirus Expression Vectors: A Laboratory Manual (W.H. Freeman and Co., New York, N.Y., 1992). See also, King et al., The Baculovirus Expression System: A Laboratory Guide (Chapman & Hall, London, England, 1992).
(§3) All MMPs were activated using 4-aminophenylmercuric acetate (“APMA”, Sigma Chemical, St. Louis, Mo.) or trypsin. MMP-9 also was activated using human recombinant MMP-3 (purified in Assignee's laboratory following standard cloning and purification techniques).
(§4) The following fluorogenic, methoxycoumarin-containing polypeptide substrate (I) was used in the MMP inhibition assays: MCA-ArgProLeuGlyLeuDpaAlaArgGluArgNH2 (I) “MCA” is 7-methoxycoumarin-4-yl acetyl. Substrate (I) was prepared Assignee's laboratory. In the absence of MMP inhibitory activity, the substrate is cleaved at the Gly-Leu peptide bond. This cleavage separates the highly fluorogenic peptide from the 2,4-dinitrophenyl quencher, thus resulting in increase of fluorescent intensity.
(§5) The stock solutions of the assayed compounds and salts were prepared in […] (DMSO). These stock solutions were diluted in Buffer A (100 mM Tris-HCl, 100 mM NaCl, 10 mM CaCl2, 0.05% polyoxyethylene 23 lauryl ether, pH 7.5) to obtain solutions with different compound concentrations, i.e., assay solutions with different concentrations of the assayed […] compound. The experiment controls contained the same amount of Buffer A/DMSO as the assayed sample, but contained none of the tested compound or salt.
The assays from which the Ki determinations were made were performed as follows. The assayed compound samples were incubated in separate wells of untreated white polystyrene plates (Nunc Nalgene International, Rochester, N.Y.), and analyzed on a Tecan SpectraFlour Plus plate reader. The excitation wavelength was 330 nm, and the emission wavelength—420 nm. All samples (assayed compounds and controls) were incubated in separate plate wells at room temperature for 1 hr in the presence of 4 μM of MMP substrate (I). In the absence of MMP inhibitory activity, substrate (I) was cleaved at the Gly-Leu bond resulting in an increase of relative fluorescence. Inhibition was observed as a reduced rate of this increase in relative fluorescence. […] This protocol is a modification of method by Knight et al., FEBS Lett., 296(3), 263-266 (1992). Apparent inhibitory constants were determined by non-linear regression of reaction velocity as a function of inhibitor and enzyme concentration using Morrison's equation, as described by Kuzmic, Anal. Biochem. 286, 45-50 (2000). […]

Another test has as its target T2, Human recombinant MMP-14 (Homo sapiens, UniProt P50281).
T2 construct: The catalytic domain enzyme was expressed in E. coli inclusion bodies, solubilized in urea; made in house
The description is as above. The settings on record: Table 1. It is filed as biochemical. As to the method: as §1, §2
The MMP-14 full length cDNA was provided by Dr. Gregory Goldberg of Washington University (St. Louis, Mo.). The catalytic domain enzyme was expressed in E. coli inclusion bodies, solubilized in urea, purified on a preparative […] reverse phase HPLC column, and then refolded in the presence of zinc acetate and purified for use.
as §3, §4, §5
The assays from which the Ki determinations were made were performed as follows. The assayed compound samples were incubated in separate wells of untreated white polystyrene plates (Nunc Nalgene International, Rochester, N.Y.), and analyzed on a Tecan SpectraFlour Plus plate reader. The excitation wavelength was 330 nm, and the emission wavelength—420 nm. All samples (assayed compounds and controls) were incubated in separate plate wells at room temperature for 1 hr in the presence of 4 μM of MMP substrate (I). In the absence of MMP inhibitory activity, substrate (I) was cleaved at the Gly-Leu bond resulting in an increase of relative fluorescence. Inhibition was observed as a reduced rate of this increase in relative fluorescence. […] This protocol is a modification of method by Knight et al., FEBS Lett., 296(3), 263-266 (1992). Apparent inhibitory constants were determined by non-linear regression of reaction velocity as a function of inhibitor and enzyme concentration using Morrison's equation, as described by Kuzmic, Anal. Biochem. 286, 45-50 (2000). Modifications were made in the non-linear regression method to allow a common control reaction rate and effective enzyme concentration to be shared between all dose-response relationships on a given assay plate. Since the substrate concentration was chosen to be at or below the Km, the apparent Ki's from this analysis were reported as Ki's without correction for the influence of substrate.
The above protocols were used to determine Ki constants for the compounds in Examples 2-35 above. All Ki values in Table 1 are given in nM units.

As for `O=C(NO)C1(S(=O)(=O)c2ccc(-c3ccc(CCC(F)(F)C(F)(F)F)cn3)cc2)CCOCC1` [Example 36], the values for the Ki on Human recombinant MMP-13 and on Human recombinant MMP-14 were 0.0403 nM and 523 nM, respectively.
The corresponding values for `CCOCCOc1ccc(-c2ccc(S(=O)(=O)C3(C(=O)NO)CCOCC3)cc2)cc1` [Example 37] are 0.028 nM and 632 nM.
The corresponding values for `O=C(NO)C1(S(=O)(=O)c2ccc(-c3ccc(OC(F)(F)C(F)F)cc3)cc2)CCN(CCl)CC1` [Example 38] are 0.02 nM and 446 nM.
As to `COCCN1CCC(C(=O)NO)(S(=O)(=O)c2ccc(-c3ccc(OC(F)(F)C(F)F)cc3)cc2)CC1` [Example 39], the Ki at Human recombinant MMP-13 came out at 0.011 nM; at Human recombinant MMP-14, 185 nM.
In the same order, the values of `O=C(NO)C1(S(=O)(=O)c2ccc(-c3ccc(OC(F)(F)C(F)F)cc3)cc2)CCN(C2CC2)CC1` [Example 40] are 0.066 nM and 292 nM.
For the compound `O=C(NO)C1(S(=O)(=O)c2ccc(-c3ccc(CCC(F)(F)C(F)(F)F)cc3)cc2)CCOCC1` [Example 41], the inhibition constant (Ki) at Human recombinant MMP-13 was 0.224 nM; at Human recombinant MMP-14, 1140 nM.
In the case of `O=C(NO)C1(S(=O)(=O)c2ccc(-c3ccc(CCCC(F)(F)F)cc3)cc2)CCOCC1` [Example 42], the Ki on Human recombinant MMP-13 stood at 0.072 nM; on Human recombinant MMP-14 it was 800 nM.
The corresponding values for `COCCN1CCC(C(=O)NO)(S(=O)(=O)c2ccc(-c3ccc(CCCC(F)(F)F)cc3)cc2)CC1` [Example 43] are 0.06 nM and 1590 nM.
As to `O=C(NO)C1(S(=O)(=O)c2ccc(-c3ccc(CCCC(F)(F)F)cc3)cc2)CCN(C2CC2)CC1` [Example 44], the inhibition constant Ki amounted to 0.13 nM at Human recombinant MMP-13 and 2160 nM at Human recombinant MMP-14.
In the same order, the values of `O=C(NO)C1(S(=O)(=O)c2ccc(-c3ccc(CCC(F)(F)C(F)(F)F)cc3)cc2)CCN(C2CC2)CC1` [Example 45] are 0.46 nM and 1730 nM.
In the same order, the values of `COCCN1CCC(C(=O)NO)(S(=O)(=O)c2ccc(-c3ccc(CCC(F)(F)C(F)(F)F)cc3)cc2)CC1` [Example 46] are 0.11 nM and 1860 nM.
On to `COCCC(C(=O)NO)S(=O)(=O)c1ccc(-c2ccc(CCCC(F)(F)F)cc2)cc1` (stereo not drawn) [Example 47], for which the Ki on Human recombinant MMP-13 is 0.4 nM; at Human recombinant MMP-14 it was 5260 nM.
In the same order, the values of `CC(C)(C)N1CCC(C(=O)NO)(S(=O)(=O)c2ccc(-c3ccc(CCCC(F)(F)F)cc3)cc2)CC1` [Example 48] are 0.221 nM and 8450 nM.
As for `O=C(NO)C1(S(=O)(=O)c2ccc(-c3cnc(CCC4CC4)cn3)cc2)CCOCC1` [Example 49], the Ki on Human recombinant MMP-13 worked out at 0.71 nM; on Human recombinant MMP-14 it was 3620 nM.
As to `O=C(NO)C1(S(=O)(=O)c2ccc(-c3ccc(CCC(F)(F)C(F)(F)F)cn3)cc2)CCN(C2CC2)CC1` [Example 50], the Ki turned out to be 0.12 nM at Human recombinant MMP-13 and 1190 nM on Human recombinant MMP-14.
Take `O=C(NO)C1(S(=O)(=O)c2ccc(-c3ccc(CCCC(F)(F)F)cn3)cc2)CCN(C2CC2)CC1` [Example 51]: the Ki on Human recombinant MMP-13 is 0.05 nM; at Human recombinant MMP-14, 1890 nM.
As to `CCN1CCC(C(=O)NO)(S(=O)(=O)c2ccc(-c3ccc(CCC(F)(F)C(F)(F)F)cn3)cc2)CC1` [Example 52], the inhibition constant (Ki) amounted to 0.07 nM on Human recombinant MMP-13 and 2580 nM at Human recombinant MMP-14.
Consider `CCN1CCC(C(=O)NO)(S(=O)(=O)c2ccc(-c3ccc(CCCC(F)(F)F)cn3)cc2)CC1` [Example 53], for which the inhibitory constant (Ki) at Human recombinant MMP-13 came to 0.06 nM; at Human recombinant MMP-14, 3960 nM.
Turning to `COCCN1CCC(C(=O)NO)(S(=O)(=O)c2ccc(-c3ccc(CCCC(F)(F)F)cn3)cc2)CC1` [Example 54], the Ki at Human recombinant MMP-13 turned out to be 0.3 nM; on Human recombinant MMP-14, 1110 nM.
In the case of `O=C(NO)C1(S(=O)(=O)c2ccc(-c3cnc(CCC(F)(F)C(F)(F)F)cn3)cc2)CCOCC1` [Example 55], the inhibition constant (Ki) on Human recombinant MMP-13 came out at 0.222 nM; at Human recombinant MMP-14 it was 2560 nM.
In the case of `O=C(NO)C1(S(=O)(=O)c2ccc(-c3ccc(CCCC(F)F)cc3)cc2)CCOCC1` [Example 57], the Ki was 0.04 nM at Human recombinant MMP-13 and 453 nM on Human recombinant MMP-14.
On to `O=C(NO)C1(S(=O)(=O)c2ccc(-c3cnc(CCCC(F)(F)F)cn3)cc2)CCOCC1` [Example 58], for which the inhibition constant (Ki) at Human recombinant MMP-13 was 0.45 nM; on Human recombinant MMP-14 it was above 10000 nM.
In the same order, the values of `CC(F)(F)CCc1ccc(-c2ccc(S(=O)(=O)C3(C(=O)NO)CCN(C4CC4)CC3)cc2)cc1` [Example 59] are 0.05 nM and 390 nM.
In the same order, the values of `CC(F)(F)CCc1cnc(-c2ccc(S(=O)(=O)C3(C(=O)NO)CCOCC3)cc2)cn1` [Example 60] are 0.212 nM and 1880 nM.
In the same order, the values of `CCN1CCC(C(=O)NO)(S(=O)(=O)c2ccc(-c3ccc(CCC(C)(F)F)cc3)cc2)CC1` [Example 61] are 0.02 nM and 570 nM.
As to `O=C(NO)C1(S(=O)(=O)c2ccc(-c3cnc(CCC(F)(F)F)cn3)cc2)CCOCC1` [Example 62], the values for the Ki on Human recombinant MMP-13 and on Human recombinant MMP-14 were 0.45 nM and 2930 nM, respectively.
The corresponding values for `COCCN1CCC(C(=O)NO)(S(=O)(=O)c2ccc(-c3ccc(CCC(C)(F)F)cc3)cc2)CC1` [Example 63] are 0.01 nM and 237 nM.
In the same order, the values of `CCN1CCC(C(=O)NO)(S(=O)(=O)c2ccc(-c3cnc(CCC(C)(F)F)cn3)cc2)CC1` [Example 64] are 0.296 nM and above 10000 nM.
In the same order, the values of `COCCN1CCC(C(=O)NO)(S(=O)(=O)c2ccc(-c3cnc(CCC(C)(F)F)cn3)cc2)CC1` [Example 65] are 0.27 nM and 5970 nM.
For the compound `CC(F)(F)CCc1cnc(-c2ccc(S(=O)(=O)C3(C(=O)NO)CCN(C4CC4)CC3)cc2)cn1` [Example 66], the inhibitory constant (Ki) at Human recombinant MMP-13 amounted to 0.23 nM; on Human recombinant MMP-14 it was 4260 nM.
Regarding `COCCN1CCC(C(=O)NO)(S(=O)(=O)c2ccc(-c3ccc(CCC(C)(F)F)cn3)cc2)CC1` [Example 67], the values for the Ki at Human recombinant MMP-13 and at Human recombinant MMP-14 were 0.07 nM and 831 nM, respectively.
The corresponding values for `O=C(NO)C1(S(=O)(=O)c2ccc(-c3ccc(OC(F)(F)C(F)F)cc3)cc2)CCOCC1` [Example 68] are 0.0509 nM and 235 nM.
Regarding `O=C(NO)C1(S(=O)(=O)c2ccc(-c3ccc(CCCC(F)(F)F)cn3)cc2)CCOCC1` [Example 69], the Ki stood at 0.082 nM on Human recombinant MMP-13 and 708 nM at Human recombinant MMP-14.

The term Ki denotes a measure of affinity in units of concentration, obtained from inhibition or displacement.
